According to the NIST ThermoML archive (doi:10.1021/je050376y):

Assay: xn = mol fraction of the nth substance listed
Conditions: 101 kPa, Liquid

Cc1ccc(O)cc1 [4-methylphenol] + OCCO
Conditions	mass density [kg/m3]	viscosity [mPa·s]
308.15 K, x1 = 0.1001	1088.89	12.15
308.15 K, x1 = 0.1999	1077.45	12.43
308.15 K, x1 = 0.2997	1067.32	12.43
308.15 K, x1 = 0.4001	1058.44	12.09
308.15 K, x1 = 0.4998	1050.66	11.54
308.15 K, x1 = 0.6002	1043.69	10.83
308.15 K, x1 = 0.7	1037.34	10.01
308.15 K, x1 = 0.8	1031.62	9.31
308.15 K, x1 = 0.8994	1026.55	8.726
308.15 K, x1 = 1	1021.98	8.444
313.15 K, x1 = 0.1001	1085.2	9.956
313.15 K, x1 = 0.1999	1073.68	10.18
313.15 K, x1 = 0.2997	1063.52	10.13
313.15 K, x1 = 0.4001	1054.58	9.821
313.15 K, x1 = 0.4998	1046.78	9.353
313.15 K, x1 = 0.6002	1039.82	8.735
313.15 K, x1 = 0.7	1033.45	8.103
313.15 K, x1 = 0.8	1027.72	7.526
313.15 K, x1 = 0.8994	1022.63	7.022
313.15 K, x1 = 1	1018.05	6.745
318.15 K, x1 = 0.1001	1081.49	8.319
318.15 K, x1 = 0.1999	1069.89	8.436
318.15 K, x1 = 0.2997	1059.67	8.358
318.15 K, x1 = 0.4001	1050.7	8.059
318.15 K, x1 = 0.4998	1042.88	7.662
318.15 K, x1 = 0.6002	1035.9	7.175
318.15 K, x1 = 0.7	1029.55	6.646
318.15 K, x1 = 0.8	1023.79	6.177
318.15 K, x1 = 0.8994	1018.7	5.739
318.15 K, x1 = 1	1014.09	5.471
323.15 K, x1 = 0.1001	1077.77	7.031
323.15 K, x1 = 0.1999	1066.09	7.069
323.15 K, x1 = 0.2997	1055.81	6.976
323.15 K, x1 = 0.4001	1046.81	6.721
323.15 K, x1 = 0.4998	1038.98	6.378
323.15 K, x1 = 0.6002	1031.99	5.971
323.15 K, x1 = 0.7	1025.61	5.523
323.15 K, x1 = 0.8	1019.85	5.136
323.15 K, x1 = 0.8994	1014.75	4.788
323.15 K, x1 = 1	1010.12	4.532
333.15 K, x1 = 0.1001	1070.28	5.121
333.15 K, x1 = 0.1999	1058.44	5.137
333.15 K, x1 = 0.2997	1048.06	5.029
333.15 K, x1 = 0.4001	1038.98	4.824
333.15 K, x1 = 0.4998	1031.11	4.607
333.15 K, x1 = 0.6002	1024.09	4.298
333.15 K, x1 = 0.7	1017.71	3.988
333.15 K, x1 = 0.8	1011.92	3.711
333.15 K, x1 = 0.8994	1006.8	3.461
333.15 K, x1 = 1	1002.09	3.245
343.15 K, x1 = 0.1001	1060.64	3.886
343.15 K, x1 = 0.1999	1048.68	3.849
343.15 K, x1 = 0.2997	1038.24	3.752
343.15 K, x1 = 0.4001	1029.09	3.602
343.15 K, x1 = 0.4998	1021.2	3.424
343.15 K, x1 = 0.6002	1014.17	3.201
343.15 K, x1 = 0.7	1007.79	2.995
343.15 K, x1 = 0.8	1001.99	2.786
343.15 K, x1 = 0.8994	996.84	2.588
343.15 K, x1 = 1	992.07	2.431
353.15 K, x1 = 0.1001	1055.58	2.934
353.15 K, x1 = 0.1999	1043.36	2.99
353.15 K, x1 = 0.2997	1032.81	2.915
353.15 K, x1 = 0.4001	1023.59	2.776
353.15 K, x1 = 0.4998	1015.62	2.648
353.15 K, x1 = 0.6002	1008.55	2.488
353.15 K, x1 = 0.7	1002.15	2.326
353.15 K, x1 = 0.8	996.33	2.173
353.15 K, x1 = 0.8994	991.1	2.022
353.15 K, x1 = 1	986.24	1.891
